Experimental findings from paper PMC8747370, “Characterization of Two BAHD Acetyltransferases Highly Expressed in the Flowers of Jasminum sambac (L.) Aiton” (Plants, 2021) are described below.

Assay [1] deals with T1, GST-JsBEAT1.
T1 construct: tag kept
Put plainly: GC-MS of benzyl acetate formed, curve fit. In kind it is biochemical, Jasminum sambac. The note with it: 250 mM Tris-HCl pH 7.5, 25 mM MgCl2, 25 mM KCl, 10 mM β-mercaptoethanol, 30 °C, 1 h. From the text:
GC-MS of benzyl acetate formed, curve fit on GST-JsBEAT1

For assay [2], the system named is T2, 6xHis-JsBEAT2.
T2 construct: full-length cDNA, N-terminal 6xHis tag (pQE30), E. coli M15, Ni-NTA purified
Put plainly: GC-MS of benzyl acetate formed, curve fit. The assay is classed as biochemical, Jasminum sambac. Conditions: 250 mM Tris-HCl pH 7.5, 25 mM MgCl2, 25 mM KCl, 10 mM β-mercaptoethanol, 30 °C, 1 h. From the text: GC-MS of benzyl acetate formed, curve fit on 6xHis-JsBEAT2

The term Km denotes the concentration of substrate that gives half-maximal velocity. For the compound `CC(=O)SCCNC(=O)CCNC(=O)[C@H](O)C(C)(C)COP(=O)(O)OP(=O)(O)OC[C@H]1O[C@@H](n2cnc3c(N)ncnc32)[C@H](O)[C@@H]1OP(=O)(O)O` [acetyl-CoA], the Km turned out to be 546 ± 94.5 µM in assay [1] (300 μM benzyl alcohol (fixed)) and 317 ± 31.7 µM in assay [2] (with benzyl alcohol (fixed concentration not restated)).
In the case of `OCc1ccccc1` [benzyl alcohol], the Michaelis constant (Km) in assay [1] (300 μM acetyl-CoA (fixed)) was determined as 447 ± 108 µM; in assay [2] (with acetyl-CoA (fixed concentration not restated)), 279 ± 26.5 µM.
